According to ChEMBL document CHEMBL1128877, “Isosinococuline, a novel antitumor morphinane alkaloid from Cocculus trilobus” (1995):

System: Mus musculus
Test: In vivo antitumor activity against P-388 leukemia in mice was determined at 25 mg/kg/day level
Assay type: functional

COC1=C2C(N)Cc3cc(OC)c(O)cc3C2C[C@H](O)[C@@H]1O (stereo partly specified) showed a T/C of 146%.
